According to article PMC10643210, “Expanding structural diversity of 5′-aminouridine moiety of sansanmycin via mutational biosynthesis” (Frontiers in Bioengineering and Biotechnology, 2023):
Values after ≈ are worked out from the molar mass of the structure shown. Where two headings read alike, the source gives them in different places.

Assays:
Mtb H37Rv [1] = conditions: Figure 1F, natural sansanmycins; reference not given; cited from earlier work
M. tuberculosis S17 [2] = experiment: microbe, parasite or virus in culture; conditions: Mycobacterium tuberculosis, S17, read-out: MIC M. tuberculosis S17
M. tuberculosis H37Rv [3] = experiment: microbe, parasite or virus in culture; conditions: Mycobacterium tuberculosis, read-out: MIC M. tuberculosis H37Rv
Pae PAO1 = conditions: Figure 1F; ref Okamoto et al., 2012; cited from earlier work
Pae PAM1020 = conditions: Figure 1F; ref Boojamra et al., 2001; cited from earlier work
Mtb H37Rv [4] = conditions: Figure 1F, ref Tran et al., 2017, cited from earlier work
[5] = Stability in KH2PO4 buffer, HPLC; assay type: physicochemical; conditions: chemical stability, 0.05 M KH2PO4 buffer pH 6.0, room temperature (method: 28 °C), HPLC peak area, three parallel repeats
Method: Poor stability is one of the factors hindering the development of sansanmycin analogues into drug candidates. Thus, we conducted stability experiments followed the method reported previously ([Shi et al., 2016]) on the two active sansanmycin analogues, SS-KK-2 and SS-KK-3 (Figure 5). These experiments were carried out at room temperature with the parent compound SS-A as a control.
FIGURE 5 Stability of SS-A, SS-KK-2 and SS-KK-3. (A–C) HPLC analysis of SS-A, SS-KK-2 and SS-KK-3 at indicated days in KH2PO4 buffer (pH 6.0) at room temperature. (D) The changes of the level of SS-A, SS-KK-2 and SS-KK-3 over time. All samples were analyzed by HPLC and quantified according to the areas of peaks. Each sample underwent three parallel repeats. SS-A, black line; SS-KK-2, orange line; SS-KK-3, green line.
The stability assessment of sansanmycin A and its analogues was conducted using a previously reported method ([Shi et al., 2016]). Sansanmycins were dissolved in 0.05 M KH2PO4 buffer (with pH adjusted to 6.0 using NaOH) and incubated at 28 °C for 9 days with testing conducted every 3 days. Each sample underwent three parallel repeats. All samples were analyzed by HPLC and quantified by peak area analysis.

M. tuberculosis S17 [6] = conditions: clinical isolate susceptible to isoniazid and rifampicin; Alamar blue, 7H9 broth, triplicate wells
M. Phlei [7] = conditions: microdilution in Mueller-Hinton broth, 10 h at 37°C, visual read-out, triplicate
E. coli ΔtolC = conditions: microdilution in Mueller-Hinton broth, 10 h at 37°C, visual read-out, triplicate
M. tuberculosis H37Rv [8] = test system: M. tuberculosis H37Rv
P. aeruginosa 11 [9] = conditions: microdilution in Mueller-Hinton broth, 10 h at 37°C, visual read-out, triplicate
MraY B. subtilis = conditions: Figure 1F; ref Inukai et al., 1993; cited from earlier work
Text: (§1) FIGURE 1 Chemical structures of natural UPAs (black) and synthetic analogues with modified 5′-aminouridine moiety (blue) and their corresponding inhibitory activity. (A) The pseudo-tetrapeptide backbone of UPAs. (B) The chemical structures of 5′-aminouridine of natural UPAs. (C–E) The chemical structures of modified 5′-aminouridine of synthetic analogues. (F) Detailed information on structure and inhibitory activities of natural UPAs and synthesized derivatives. Pae, Pseudomonas aeruginosa; Mtb, Mycobacterium tuberculosis; B. subtilis, Bacillus subtilis; S. aureus, Staphylococcus aureus; A. ae ...

MraY A. aeolicus = conditions: Figure 1F, ref Mashalidis et al., 2019, cited from earlier work
Text: as §1

P. aeruginosa 11 [10] = experiment: microbe, parasite or virus in culture; conditions: Pseudomonas aeruginosa, 11, 10 h, read-out: MIC P. aeruginosa 11
M. Phlei [11] = experiment: microbe, parasite or virus in culture; conditions: Mycolicibacterium phlei, 10 h, read-out: MIC M. Phlei

For Sansanmycin B, which “MIC (Mtb H37Rv)” value (Mtb H37Rv [1]) is on record?
The value was 8 µg/mL.

Which MIC (M. tuberculosis S17 [2]) does the source give for CC(=O)NC[C@H]1CN(c2ccc(N3CCOCC3)c(F)c2)C(=O)O1 [LZD, linezolid] here?
The MIC was 0.25 µg/mL (≈ 0.741 µM).

And the MIC (M. tuberculosis H37Rv [3])?
Its MIC is 0.25 µg/mL (≈ 0.741 µM).

For 3′-hydroxypacidamycin D, which “MIC (Pae PAO1)” value (Pae PAO1) is on record?
The value was 32 µg/mL.

For CO[C@H]1/C=C/O[C@@]2(C)Oc3c(C)c(O)c4c(O)c(c(/C=N/N5CCN(C)CC5)c(O)c4c3C2=O)NC(=O)/C(C)=C\C=C\[C@H](C)[C@H](O)[C@@H](C)[C@@H](O)[C@@H](C)[C@H](OC(C)=O)[C@@H]1C [RIF, rifampicin], which MIC (M. tuberculosis S17 [2]) is on record?
The MIC was 0.25 µg/mL (≈ 0.304 µM).

What about the MIC (M. tuberculosis H37Rv [3]) of the same compound?
Its MIC is 0.125 µg/mL (≈ 0.152 µM).

Which “MIC (Mtb H37Rv)” value (Mtb H37Rv [1]) does the source give for Sansanmycin C here?
Its value is over 32 µg/mL.

With Dihydropacidamycin D as the compound, how does the “MIC (Pae PAM1020)” value (Pae PAM1020) read?
Its value is 64 µg/mL.

Which MIC (M. tuberculosis S17 [2]) does the source give for NNC(=O)c1ccncc1 [INH, isoniazid] here?
The MIC was 0.03 µg/mL (≈ 0.219 µM).

What about the MIC (M. tuberculosis H37Rv [3]) of the same compound?
Its MIC is 0.03 µg/mL (≈ 0.219 µM).

With Dihydrosansanmycin A as the compound, how does the “MIC50 (Mtb H37Rv)” value (Mtb H37Rv [4]; value in brackets) read?
Its value is 0.50 ± 0.05 µM.

What about the “MIC50 (Mtb H37Rv)” value (Mtb H37Rv [4]) of the same compound?
The value was 0.43 µg/mL.

Which “residual quantities after 9 days of incubation” value [5] does the source give for CSCC[C@H](NC(=O)N[C@@H](Cc1c[nH]c2ccccc12)C(=O)O)C(=O)N[C@H](C(=O)N/C=C1/C[C@@H](O)[C@H](n2ccc(=O)[nH]c2=O)O1)[C@H](C)N(C)C(=O)[C@@H](N)Cc1cccc(O)c1 [SS-A, sansanmycin A] here?
Its value is “below 70%”.

What about the “MIC M. tuberculosis S17” value (M. tuberculosis S17 [6]) of the same compound?
Its value is 16 µg/mL (≈ 18.5 µM).

And the “MIC M. Phlei” value (M. Phlei [7])?
Its value is 64 µg/mL (≈ 74.1 µM).

What about the “MIC (Mtb H37Rv)” value (Mtb H37Rv [1]) of the same compound?
Its value is 16 µg/mL (≈ 18.5 µM).

And the “MIC E. coli ΔtolC” value (E. coli ΔtolC)?
The value was 4 µg/mL (≈ 4.63 µM).

What about the “MIC M. tuberculosis H37Rv” value (M. tuberculosis H37Rv [8]) of the same compound?
The value was 16 µg/mL (≈ 18.5 µM).

And the “MIC P. aeruginosa 11” value (P. aeruginosa 11 [9])?
The value was 16 µg/mL (≈ 18.5 µM).

With CSCC[C@H](NC(=O)N[C@@H](Cc1c[nH]c2ccccc12)C(=O)O)C(=O)N[C@H](C(=O)NC[C@H]1O[C@@H](n2ccc(=O)[nH]c2=O)C[C@@H]1O)[C@H](C)N(C)C(=O)[C@@H](N)Cc1ccc(O)cc1 [SS-KK-2] as the compound, how does the “stability compared with SS-A” value ([5]; 9 days, tested every 3 days) read?
Its value is “slightly higher level of stability than SS-A”.

And the “MIC M. tuberculosis S17” value (M. tuberculosis S17 [6])?
Its value is 32 µg/mL (≈ 37 µM).

And the “MIC M. Phlei” value (M. Phlei [7])?
Its value is over 32 µg/mL.

And the “MIC E. coli ΔtolC” value (E. coli ΔtolC)?
Its value is 1 µg/mL (≈ 1.15 µM).

What about the “MIC M. tuberculosis H37Rv” value (M. tuberculosis H37Rv [8]) of the same compound?
The value was 32 µg/mL (≈ 37 µM).

What about the “MIC P. aeruginosa 11” value (P. aeruginosa 11 [9]) of the same compound?
Its value is over 32 µg/mL.

Which results are given for Dihydrosansanmycin B?
MIC50 (Mtb H37Rv) (Mtb H37Rv [4]; value in brackets): 0.30 ± 0.07 µM; MIC50 (Mtb H37Rv) (Mtb H37Rv [4]): 0.25 µg/mL

For Mureidomycin A, which “IC50 (MraY B. subtilis)” value (MraY B. subtilis) is on record?
The value was 0.05 µg/mL.

Which “MIC50 (Mtb H37Rv)” value (Mtb H37Rv [4]; value in brackets) does the source give for Dihydrosansanmycin C here?
The value was 18.5 ± 0.70 µM.

And the “MIC50 (Mtb H37Rv)” value (Mtb H37Rv [4])?
The value was 16 µg/mL.

For Pacidamycin D, which “MIC (Pae PAM1020)” value (Pae PAM1020) is on record?
Its value is 64 µg/mL.

What about the “MIC (Pae PAO1)” value (Pae PAO1) of the same compound?
The value was 64 µg/mL.

What does the source list for 3′-hydroxymureidomycin A?
IC50 (MraY A. aeolicus; value in brackets): 52 nM; IC50 (MraY A. aeolicus) (MraY A. aeolicus): 0.045 µg/mL

Which MIC (P. aeruginosa 11 [10]) does the source give for [H]/N=C(/N)N[C@H]1[C@H](O)[C@@H](O)[C@H](O[C@@H]2O[C@@H](C)[C@](O)(C=O)[C@H]2O[C@@H]2O[C@@H](CO)[C@H](O)[C@@H](O)[C@@H]2NC)[C@@H](N/C(N)=N\[H])[C@@H]1O [streptomycin] here?
Its MIC is 8 µg/mL (≈ 13.8 µM).

And the MIC (M. Phlei [11])?
The MIC was 16 µg/mL (≈ 27.5 µM).

What about the “MIC E. coli ΔtolC” value (E. coli ΔtolC) of the same compound?
Its value is 2 µg/mL (≈ 3.44 µM).

What does the source list for CSCC[C@H](NC(=O)N[C@@H](Cc1c[nH]c2ccccc12)C(=O)O)C(=O)N[C@H](C(=O)NC[C@H]1O[C@@H](n2ccc(=O)[nH]c2=O)C[C@@H]1O)[C@H](C)N(C)C(=O)[C@@H](N)Cc1cccc(O)c1 [SS-KK-1]?
MIC M. tuberculosis S17 (M. tuberculosis S17 [6]): >64 µg/mL; MIC M. Phlei (M. Phlei [7]): >32 µg/mL; MIC E. coli ΔtolC (E. coli ΔtolC): >32 µg/mL; MIC M. tuberculosis H37Rv (M. tuberculosis H37Rv [8]): >64 µg/mL; MIC P. aeruginosa 11 (P. aeruginosa 11 [9]): >32 µg/mL
